Test results as given in PMC6627993 (International Journal of Molecular Sciences, 2019).
Where two headings read alike, the source gives them in different places. Each block holds one compound with its values, some of them ahead of it.

Tests used:
A2780 [1] = experiment: MTT cell viability assay
Experimental: (§4) The rate of cell-survival under the action of test substances was evaluated by an improved MTT assay as previously described [20, 31]. […] Incubation was ended after 72 h and cell survival was determined by addition of MTT (Serva, Heidelberg, Germany) solution (5 mg/mL in phosphate buffered saline). The formazan precipitate was dissolved in DMSO (VWR, Langenfeld, Germany). Absorbance was measured at 544 nm and 690 nm in a FLUOstar microplate-reader (BMG LabTech, Offenburg, Germany).

A2780 [2] = conditions: cited from earlier work
CaOV3 = experiment: MTT cell viability assay
Experimental: as §4

OVSAHO [3] = experiment: MTT cell viability assay
Experimental: as §4

Kuramochi = experiment: MTT cell viability assay
Experimental: as §4

HEY [4] = experiment: MTT cell viability assay
Experimental: as §4

OVSAHO [5] = experiment: Synergism study (Chou-Talalay, MTT), 48 h HDACi + 72 h HDACi and cisplatin; assay type: cell-based, human
Experimental: (§1) Concentrations were chosen to achieve a fraction affected (fa; level of cell viability inhibition) between 0.2 and 0.9 in the Chou-Talalay-analysis.
(§2) After 72 h, the cytotoxic effect was determined with a MTT cell viability assay. Calcusyn software 2.1 (Biosoft, Cambridge, UK) was used to calculate the combination index (CI) as a quantitative measure of the degree of drug interaction.

HEY [6] = experiment: as above; assay type: cell-based, human
Experimental: as §1, §2

A2780 [7] = experiment: as above; assay type: cell-based, human
Experimental: as §1, §2

HDAC in A2780 cells = experiment: Whole-cell HDAC inhibition assay; assay type: cell-based, human; conditions: 18 h incubation
Experimental: (§3) The cellular HDAC assay was based on an assay published by Heltweg and Jung, Ciossek et al., and Bonfils et al. with minor modifications as described in [20]. Briefly, human cancer cell lines A2780, CaOV3, HEY, Kuramochi, and OVSAHO were seeded in 96-well tissue culture plates (Corning, Kaiserslautern, Germany) at a density of 15,000 c/w, 15,000 c/w, 17,500 c/w, 22,500 c/w, and 50,000 c/w in a total volume of 90 µL of culture medium. After 24 h, cells were incubated for 18 h with increasing concentrations of test compounds. The reaction was started by adding 10 µL of 3 mM Boc-Lys(Ac)-AMC (Bachem, Bubendorf, Switzerland) to reach final concentration of 0.3 mM [61]. The cells were incubated with the Boc-Lys(Ac)-AMC for 3 h under cell culture conditions. […] Fluorescence intensity was measured at excitation of 320 nm and emission of […] in a NOVOstar microplate reader (BMG LabTech, Offenburg, Germany).

HDAC in CaOV3 cells = experiment: Whole-cell HDAC inhibition assay; assay type: cell-based, human; conditions: 18 h incubation
Experimental: as §3

HDAC in OVSAHO cells = experiment: Whole-cell HDAC inhibition assay; assay type: cell-based, human; conditions: 18 h incubation
Experimental: as §3

HDAC in HEY cells = experiment: Whole-cell HDAC inhibition assay; assay type: cell-based, human; conditions: 18 h incubation
Experimental: as §3

HDAC in Kuramochi cells = experiment: Whole-cell HDAC inhibition assay; assay type: cell-based, human; conditions: 18 h incubation
Experimental: as §3

[8] = system: A2780, CaOV3, HEY, Kuramochi, OVSAHO; experiment: Synergism study (Chou-Talalay, MTT), all cell lines; assay type: cell-based, human; conditions: 48 h + 72 h; CI < 0.9 indicates synergism
Experimental: as §1, §2

HEY [9] = experiment: Measurement of apoptotic nuclei (subG1, flow cytometry); assay type: cell-based, human; conditions: HDACi 48 h, then cisplatin IC50 24 h
Experimental: Next, we investigated if the observed synergistic cytotoxic effect was mediated via apoptosis-induction. […] Then, cells were subjected to flow-cytometry-based subG1 analysis.
A2780, CaOV3, HEY, Kuramochi, and OVSAHO cells were seeded at a density of 40,000 c/w, 50,000 c/w, 40,000 c/w, 60,000 c/w, and 100,000 c/w in 24-well plates (Sarstedt, Nürnbrecht, Germany). Cells were treated with entinostat, panobinostat, or nexturastat A and cisplatin alone or in combination for the indicated time points. Supernatant was removed after a centrifugation step and the cells were lysed in 500 µL hypotonic lysis buffer (0.1% sodium citrate, 0.1% Triton X-100, 100 µg/mL PI) at 4 °C in the dark overnight. The percentage of apoptotic nuclei with DNA content in sub-G1 was analyzed by flow cytometry using the CyFlow instrument (Partec, Norderstedt, Germany).

[10] = read-out: IC50 of cisplatin, cisplatin alone, 72 h
[11] = cisplatin 1.00 µM + panobinostat 40 nM
[12] = cisplatin 2.00 µM + panobinostat 40 nM
[13] = cisplatin 4.00 µM + panobinostat 40 nM
[14] = read-out: IC50 (HDAC inhibitory activity)

Structure (SMILES): N.N.[Cl][Pt][Cl] [Cisplatin, cis-diamminedichloridoplatinum(II)]
- IC50 (A2780 [1]; 72 h incubation): 11 µM
- pIC50 ± SEM (A2780 [1]; 72 h incubation): 4.96 ± 0.01
- IC50 (A2780 [1]; [10]): 11 µM
- IC50-values for cisplatin in previous studies (A2780 [2]): one-digit micromolar range
- IC50 (CaOV3; 72 h incubation): 1440 nM
- pIC50 ± SEM (CaOV3; 72 h incubation): 5.84 ± 0.01
- IC50 (CaOV3; [10]): 1440 nM
- IC50 (OVSAHO [3]; 72 h incubation): 4.83 µM
- pIC50 ± SEM (OVSAHO [3]; 72 h incubation): 5.32 ± 0.01
- IC50 (OVSAHO [3]; [10]): 4.83 µM
- IC50 (Kuramochi; 72 h incubation): 4.68 µM
- pIC50 ± SEM (Kuramochi; 72 h incubation): 5.33 ± 0.02
- IC50 (Kuramochi; [10]): 4.68 µM
- IC50 (HEY [4]; 72 h incubation): 5.25 µM
- pIC50 ± SEM (HEY [4]; 72 h incubation): 5.28 ± 0.01
- IC50 (HEY [4]; [10]): 5.25 µM

- pIC50 ± SEM (HDAC inhibitory activity) (HDAC in A2780 cells): 7.91 ± 0.06
- IC50 (HDAC in A2780 cells; [14]): 12.1 nM
- pIC50 ± SEM (HDAC inhibitory activity) (HDAC in CaOV3 cells): 8.10 ± 0.05
- IC50 (HDAC in CaOV3 cells; [14]): 7.88 nM
- pIC50 ± SEM (HDAC inhibitory activity) (HDAC in OVSAHO cells): 7.64 ± 0.04
- IC50 (HDAC in OVSAHO cells; [14]): 23.1 nM
- pIC50 ± SEM (HDAC inhibitory activity) (HDAC in HEY cells): 7.87 ± 0.03
- IC50 (HDAC in HEY cells; [14]): 13.6 nM
- pIC50 ± SEM (HDAC inhibitory activity) (HDAC in Kuramochi cells): 8.01 ± 0.07
- IC50 (HDAC in Kuramochi cells; [14]): 9.87 nM
Structure (SMILES): Cc1[nH]c2ccccc2c1CCNCc1ccc(/C=C/C(=O)NO)cc1 [Panobinostat, panobinostat]
- combination index (CI) (OVSAHO [5]; [11]): 0.36
- combination index (CI) (OVSAHO [5]; cisplatin 1.00 µM + panobinostat 50 nM): 0.33
- combination index (CI) (OVSAHO [5]; cisplatin 1.00 µM + panobinostat 60 nM): 0.27
- combination index (CI) (OVSAHO [5]; cisplatin 1.00 µM + panobinostat 70 nM): 0.26
- combination index (CI) (OVSAHO [5]; [12]): 0.25
- combination index (CI) (OVSAHO [5]; cisplatin 2.00 µM + panobinostat 50 nM): 0.23
- combination index (CI) (OVSAHO [5]; cisplatin 2.00 µM + panobinostat 60 nM): 0.21
- combination index (CI) (OVSAHO [5]; cisplatin 2.00 µM + panobinostat 70 nM): 0.21
- combination index (CI) (OVSAHO [5]; cisplatin 3.00 µM + panobinostat 40 nM): 0.24
- combination index (CI) (OVSAHO [5]; cisplatin 3.00 µM + panobinostat 50 nM): 0.22
- combination index (CI) (OVSAHO [5]; cisplatin 3.00 µM + panobinostat 60 nM): 0.21
- combination index (CI) (OVSAHO [5]; cisplatin 3.00 µM + panobinostat 70 nM): 0.21
- combination index (CI) (OVSAHO [5]; [13]): 0.23
- combination index (CI) (OVSAHO [5]; cisplatin 4.00 µM + panobinostat 50 nM): 0.22
- combination index (CI) (OVSAHO [5]; cisplatin 4.00 µM + panobinostat 60 nM): 0.21
- combination index (CI) (OVSAHO [5]; cisplatin 4.00 µM + panobinostat 70 nM): 0.21
- combination index (CI) (OVSAHO [5]; cisplatin 5.00 µM + panobinostat 40 nM): 0.24
- combination index (CI) (OVSAHO [5]; cisplatin 5.00 µM + panobinostat 50 nM): 0.23
- combination index (CI) (OVSAHO [5]; cisplatin 5.00 µM + panobinostat 60 nM): 0.22
- combination index (CI) (OVSAHO [5]; cisplatin 5.00 µM + panobinostat 70 nM): 0.22
- combination index (CI) (HEY [6]; cisplatin 0.32 µM + panobinostat 5.0 nM): * (* means fraction affected is less than 0.20)
- combination index (CI) (HEY [6]; cisplatin 0.32 µM + panobinostat 10.0 nM): * (* means fraction affected is less than 0.20)
- combination index (CI) (HEY [6]; cisplatin 0.32 µM + panobinostat 20.0 nM): 0.14
- combination index (CI) (HEY [6]; cisplatin 0.32 µM + panobinostat […]): 0.19
- combination index (CI) (HEY [6]; cisplatin 0.50 µM + panobinostat 5.0 nM): * (* means fraction affected is less than 0.20)
- combination index (CI) (HEY [6]; cisplatin 0.50 µM + panobinostat 10.0 nM): * (* means fraction affected is less than 0.20)
- combination index (CI) (HEY [6]; cisplatin 0.50 µM + panobinostat 20.0 nM): 0.15
- combination index (CI) (HEY [6]; cisplatin 0.50 µM + panobinostat […]): 0.21
- combination index (CI) (HEY [6]; cisplatin 1.00 µM + panobinostat 5.0 nM): * (* means fraction affected is less than 0.20)
- combination index (CI) (HEY [6]; cisplatin 1.00 µM + panobinostat 10.0 nM): * (* means fraction affected is less than 0.20)
- combination index (CI) (HEY [6]; cisplatin 1.00 µM + panobinostat 20.0 nM): 0.16
- combination index (CI) (HEY [6]; cisplatin 1.00 µM + panobinostat […]): 0.25
- combination index (CI) (HEY [6]; cisplatin 2.00 µM + panobinostat 5.0 nM): * (* means fraction affected is less than 0.20)
- combination index (CI) (HEY [6]; cisplatin 2.00 µM + panobinostat 10.0 nM): 0.41
- combination index (CI) (HEY [6]; cisplatin 2.00 µM + panobinostat 20.0 nM): 0.17
- combination index (CI) (HEY [6]; cisplatin 2.00 µM + panobinostat […]): 0.25
- combination index (CI) (HEY [6]; cisplatin 4.00 µM + panobinostat 5.0 nM): 0.51
- combination index (CI) (HEY [6]; cisplatin 4.00 µM + panobinostat 10.0 nM): 0.33
- combination index (CI) (HEY [6]; cisplatin 4.00 µM + panobinostat 20.0 nM): 0.20
- combination index (CI) (HEY [6]; cisplatin 4.00 µM + panobinostat […]): 0.28
- combination index (CI) (A2780 [7]; cisplatin 0.50 µM + panobinostat 10 nM): 0.21
- combination index (CI) (A2780 [7]; cisplatin 0.50 µM + panobinostat 20 nM): 0.10
- combination index (CI) (A2780 [7]; cisplatin 0.50 µM + panobinostat 30 nM): 0.15
- combination index (CI) (A2780 [7]; cisplatin 0.50 µM + panobinostat 40 nM): 0.15
- combination index (CI) (A2780 [7]; cisplatin 1.00 µM + panobinostat 10 nM): 0.25
- combination index (CI) (A2780 [7]; cisplatin 1.00 µM + panobinostat 20 nM): 0.12
- combination index (CI) (A2780 [7]; cisplatin 1.00 µM + panobinostat 30 nM): 0.17
- combination index (CI) (A2780 [7]; [11]): 0.18
- combination index (CI) (A2780 [7]; cisplatin 2.00 µM + panobinostat 10 nM): 0.35
- combination index (CI) (A2780 [7]; cisplatin 2.00 µM + panobinostat 20 nM): 0.16
- combination index (CI) (A2780 [7]; cisplatin 2.00 µM + panobinostat 30 nM): 0.22
- combination index (CI) (A2780 [7]; [12]): 0.21
- combination index (CI) (A2780 [7]; cisplatin 4.00 µM + panobinostat 10 nM): 0.35
- combination index (CI) (A2780 [7]; cisplatin 4.00 µM + panobinostat 20 nM): 0.21
- combination index (CI) (A2780 [7]; cisplatin 4.00 µM + panobinostat 30 nM): 0.27
- combination index (CI) (A2780 [7]; [13]): 0.25
- combination index (CI) (A2780 [7]; cisplatin 6.00 µM + panobinostat 10 nM): 0.29
- combination index (CI) (A2780 [7]; cisplatin 6.00 µM + panobinostat 20 nM): 0.23
- combination index (CI) (A2780 [7]; cisplatin 6.00 µM + panobinostat 30 nM): 0.26
- combination index (CI) (A2780 [7]; cisplatin 6.00 µM + panobinostat 40 nM): 0.26
- CI-values (interaction with cisplatin) [8]: lower than 0.9
- apoptosis induction, combination with cisplatin versus cisplatin or HDACi alone (HEY [9]): no difference in apoptosis induction
